Data: US11518981B2, “Methods of enhancing engraftment activity of hematopoietic stem cells” (CHILDREN'S HOSPITAL MEDICAL CENTER, priority 2017, dated 2022)

How the values were obtained:
human CD34^+ cells = test: GFP marking in human grafts of NSG mice; type: in vivo; details: limiting dilution transplant; also long-termed secondary human grafts
From the text: NOD.Cg-Prkdcscid Il2rgtm1Wjl/SzJ (NSG) mice were purchased from The Jackson Laboratory (Bar Harbor, Me.). All animals were bred and maintained in a specific pathogen-free environment and all experiments were approved by the Institutional Animal Care and Use (IACUC) Committee. Male and female NSG mice aged 8 to 14 weeks old were fed doxycycline chow (TestDiet; Modified Prolab RMH-1500 with 0.0625% doxycycline) a week prior to, during and for 2 weeks post irradiation. Human engraftment was analyzed in bone marrow (BM), via BM aspirates performed at 6 and 12 weeks from left and right femurs. After sacrifice at 24 weeks, marrow from all of the primary mice (1 T) was harvested. Peripheral blood analysis was also performed in some experiments. Secondary transplants (2 T) were performed after mouse CD45^+ cells were depleted from BM harvested from each 1 T mouse separately, using Biotin Rat Anti-Mouse CD45 (BD Biosciences 553078) and Streptavidin Particles Plus-DM (BD Biosciences 557812) and injected into one irradiated (280 cGy) secondary NSG mouse. […] Total ROS and mitochondrial specific ROS were detected using 10 μM CM-H2DCFDA (ThermoFisher Scientific C6827) and 5 μM MITOSOXTM Red (Red Mitochondrial Superoxide Indicator) (ThermoFisher Scientific M36008) respectively, following manufacturer's instructions.

CD34^+38^−90^+ HSCs = test: cell cycle analysis (Ki-67 / Hoechst) of HSCs; type: cell-based, human; details: 72 h, RV transduced cycling HSCs; MK-8776 1 μM, PV1019 1 μM, PGE2 10 μM, Birb 796 600 nM
γH2AX = test: DNA damage response (γH2AX, 53BP1) by immunofluorescence and flow cytometry; type: cell-based, human; details: 72 h, RV transduced cycling HSCs
Experimental: For EdU incorporation assay, cells were incubated with 10 μM EdU throughout the culture period and the CLICK-IT® Plus EdU Pacific Blue Flow Cytometry Assay Kit (ThermoFisher Scientific C10636) was used for staining. […] Samples were run through a FACSCANTOTM, FORTESSATM, or LSR 2 flow cytometers (BD Biosciences), and the data was analyzed by […] software (BD). […] II cell sorter. FACS sorted CD34+38-90+ cells were fixed in 2% paraformaldehyde and permeabilized using 0.1% […] polyether alcohol, Sigma-Aldrich). […] Cells were counterstained and mounted with […]® antifade mounting medium with DAPI (H-1200 Vector Laboratories). Images were obtained using a Nikon 90i upright microscope.

HIF-1α = HIF-1α staining in HSCs (immunofluorescence, flow cytometry); type: cell-based, human; details: 72 h, RV transduced CD34^+38^−90^+ cells
From the text: FACS sorted CD34+38−90+ cells were fixed in 2% paraformaldehyde and permeabilized using 0.1% TRITON™ X-100 (Alkaryl polyether alcohol, Sigma-Aldrich). Cells were then stained with primary antibodies Anti-phospho-H2AX (Ser 139) (Millipore, 05-636), anti-53BP1 antibody (Novus Biologicals, NB100-904), or anti-HIF-1α (ab103063). For secondary antibodies, Alexa Fluor 594 conjugated Goat anti-Rabbit IgG (H+L) (A-11037) or, ALEXA FLUOR® 647 conjugated Goat anti-Rabbit IgG (H+L) (A-21245) (both from ThermoFisher Scientific) were used for 1 hour at 37° C. Cells were counterstained and mounted with […]® antifade mounting medium with DAPI (H-1200 Vector Laboratories). Images were obtained using a Nikon 90i upright microscope.

[1] = tested on: human MPB derived CD34^+ cells; test: multi-lineage reconstitution (myeloid / B-lymphoid) in bone marrow of NSG mice; type: in vivo; details: limiting dilution transplant, 42 h LV; 6 mo post 1 T
From the text: NOD.Cg-Prkdcscid Il2rgtm1Wjl/SzJ (NSG) mice were purchased from The Jackson Laboratory (Bar Harbor, Me.). All animals were bred and maintained in a specific pathogen-free environment and all experiments were approved by the Institutional Animal Care and Use (IACUC) Committee. Male and female NSG mice aged 8 to 14 weeks old were fed doxycycline chow (TestDiet; Modified Prolab RMH-1500 with 0.0625% doxycycline) a week prior to, during and for 2 weeks post irradiation. Human engraftment was analyzed in bone marrow (BM), via BM aspirates performed at 6 and 12 weeks from left and right femurs. After sacrifice at 24 weeks, marrow from all of the primary mice (1 T) was harvested. Peripheral blood analysis was also performed in some experiments. Secondary transplants (2 T) were performed after mouse CD45^+ cells were depleted from BM harvested from each 1 T mouse separately, using Biotin Rat Anti-Mouse CD45 (BD Biosciences 553078) and Streptavidin Particles Plus-DM (BD Biosciences 557812) and injected into one irradiated (280 cGy) secondary NSG mouse. For calculating competitive repopulating units (CRU) from limiting dilution transplantation, the L-CALC^TM software (Stem Cell Technologies) was used. All of the mice used for this study were randomly assigned to a treatment group. No animals were excluded from the analysis. PE-Cyanine 7 or APC-EFLUOR® 780, APC- or PE-conjugated antibodies directed to human CD34 (BD Biosciences 560710 or 555824), CD38 (eBiosciences, San Diego, Calif. 47-0389-42), CD90 (BioLegend 328120), CD45RA (eBiosciences 17-0458-42), CD49f (BD Biosciences 555736), CD45 (BD 55485 or Biolegend 304026), CD33 (eBiosciences 25-0338-42), CD19 (BD Biosciences 557791), or CD3 (BD Biosciences 555340). Cells ( 5×10^5-1×10^6) were used to label with antibodies as per manufacturer instructions with the appropriate isotype controls. For phospho-flow, primary antibodies phospho-[…]), phospho-p44/42 MAPK (ERK 1⁄2) […]; […]), and phospho-JNK […] PE conjugate; […]) (all from Cell Signaling) were used for staining overnight followed by wash and secondary antibody stain including Goat anti-Rabbit IgG (H+L) or Goat anti-Rabbit IgG (H+L) or Pacific Blue (P-10994) antibody. Apoptosis assay was performed using PE Annexin V Apoptosis Detection Kit (BD Biosciences 559763) according to the manufacturer's instructions. Total ROS and mitochondrial specific ROS were detected using 10 μM CM-H2DCFDA (ThermoFisher Scientific C6827) and 5 μM MITOSOXTM Red (Red Mitochondrial Superoxide Indicator) (ThermoFisher Scientific M36008) respectively, following manufacturer's instructions.

SMILES	GFP marking (human CD34^+ cells)	transduced HSCs accumulated in the G2M phase (CD34^+38^−90^+ HSCs)	γH2AX levels in the transduced HSCs (γH2AX)	HIF-1α levels in cycling transduced HSCs (HIF-1α)	lineage skewing [1]
CCCCC(C)(C)[C@H](O)/C=C/[C@H]1[C@H](O)CC(=O)[C@@H]1C/C=C\CCCC(=O)O [PGE2, 16,16 dimethyl Prostaglandin E2]	did not have any effect	tended to reduce	no effect	could be stabilized	sufficient to restore the lineage skewing
Cn1cc(-c2cnn3c(N)c(Br)c([C@@H]4CCCNC4)nc23)cn1 [Chk1i]	–	Fewer transduced-HSCs were found to accumulate in the G2M phase with Chk1i (albeit not statistically significant)	–	–	–
